Reference: US11135320B2, “Radioligands for pretargeted pet imaging and methods of their therapeutic use” (priority 2015, dated 2021)

Key:
[1] = mouse, in vivo; cited from earlier work
[2] = Blood residence time of ^64Cu-Tz-SarAr in healthy mice; assay type: in vivo, athymic nude mice; conditions: for Activity in Blood: healthy mice
Description: The radioligand was excreted rapidly via the bladder and kidneys, and the activity concentrations in the large intestine—a critical source of background noise in clinical colorectal cancer imaging—remained remarkably low (e.g., 0.07±0.01% ID/g at 1 h post-injection). Additional experiments were conducted to further interrogate the in vivo performance of ^64Cu-Tz-SarAr.

[3] = In vivo stability of ^64Cu-Tz-SarAr (intact fraction in blood); parameters: species or system athymic nude mice
Description: Healthy athymic nude mice were injected with ^64Cu-Tz-SarAr (300-350 μCi) via intravenous tail vein injection. After 15 min, 1 h, or 4 h, the mice were sacrificed via CO2 asphyxiation, and their blood (500 μL) was collected via cardiac puncture in heparinized 1.7 mL microcentrifuge tubes. These tubes were then centrifuged at 10,000 rpm for 10 minutes to separate plasma from red-blood cells. After 10 minutes, the plasma supernatant was then transferred to a new 1.7 mL microcentrifuge tube and placed on ice. Subsequently, 500 μL of ice-cold CH3CN was added to the plasma to precipitate the proteins, and the tubes were vortexed briefly and centrifuged again for 10 min at 10,000 rpm. After this centrifugation, the supernatant was carefully removed and transferred to another 1.7 mL microcentrifuge tube, in which it was subjected to another round of centrifugation at 10,000 rpm for 10 min. After this final centrifugation, the supernatant was again transferred to a clean 1.7 mL microcentrifuge tube. This solution was then analyzed via radio-TLC methods using reverse-phase C18 TLC plates and a mobile phase of 1:1 CH3CN:water (each with 0.1% TFA). Using this method, any free ^64Cu^2+ will remain at the baseline, while ^64Cu-Tz-SarAr and other metabolites will travel up the TLC plate. The fraction of intact ^64Cu-Tz-SarAr was calculated by dividing the integral of the parent compound peak over the integral of the entire radio-TLC chromatogram. All experiments were performed in triplicate.

[4] = tested on: subcutaneous SW1222 xenografts; test: Pretargeted PET imaging, control experiments; assay type: in vivo, athymic nude mice
Description: Due to its pharmacokinetic profile, ^64Cu-Tz-SarAr was selected for in vivo pretargeting experiments. To this end, athymic nude mice bearing A33 antigen-expressing SW1222 human colorectal carcinoma tumors were first injected with huA33-TCO (100 μg). After a 24 h interval during which huA33-TCO accumulated at the tumor and cleared from the blood, the mice were injected with ^64Cu-Tz-SarAr (400-450 μCi). The specific activity of the radiotracer was adjusted using cold ^natCu-Tz-SarAr such that the molar ratio of Tz-SarAr:huA33-TCO≈1:1. […] At 1 h post-injection, the activity concentration in the tumor (5.63±0.67% ID/g) was the highest of all tissues surveyed, while the blood (4.2±0.8% ID/g) and kidneys (3.1±0.3% ID/g) were the healthy organs with the highest background activity concentrations. […]
All pretargeted PET imaging experiments were performed on an Inveon PET/CT scanner (Siemens Healthcare Global). […] Static scans were recorded at various time points after injection with a minimum of 30 million coincident events (10-30 min total scan time). […] Activity concentrations (percentage of dose per gram of tissue [% ID/g]) and maximum intensity projections were determined by conversion of the counting rates from the reconstructed images. All of the resulting PET images were analyzed using ASIPro VM™ software. […]

Structure (SMILES) | t1/2 of clearance through the intestinal tract [1] | half-life of clearance from the blood ([2]; biexponential fit, greater than 99% of the radioligand) | Activity in Blood ([2]; 15 min) | Activity in Blood ([2]; 30 min) | Activity in Blood ([2]; 1 h) | Activity in Blood ([2]; 4 h) | Activity in Blood ([2]; 12 h) | Activity in Blood ([2]; 24 h) | blood residence time ([2]; vast majority of the radioligand) | % Intact in blood ([3]; 15 min post-injection) | % Intact in blood ([3]; 1 h post-injection) | % Intact in blood ([3]; 4 h post-injection) | uptake by the tumor (control PET imaging) ([4]; ^64Cu-Tz-SarAr alone, no antibody) | uptake by the tumor (control PET imaging) ([4]; ^64Cu-Tz-SarAr with unmodified huA33)
O=C([O-])CN1CCN(CC(=O)[O-])CC(Cc2ccc(NC(=O)CCCC(=O)NCc3ccc(-c4nncnn4)cc3)cc2)N(CC(=O)[O-])CC1.[64Cu+2] (centres unmarked) [^64Cu-Tz-NOTA] | ~4 h | – | – | – | – | – | – | – | – | – | – | – | – | –
NC12CNCCNCC(NCc3ccc(CNC(=O)CCCC(=O)NCc4ccc(-c5nncnn5)cc4)cc3)(CNCCNC1)CNCCNC2.[64Cu+2] [^64Cu-Tz-SarAr] | – | ~0.267 h | 3.02 ± 1.10 % ID/g | 1.55 ± 0.21 % ID/g | 0.42 ± 0.11 % ID/g | 0.15 ± 0.01 % ID/g | 0.12 ± 0.03 % ID/g | 0.06 ± 0.01 % ID/g | ~16 min | 96.8±0.8% | 82.0±3.3% | 29.0±5.9% | less than 0.5 % ID/g | less than 0.5 % ID/g
